These results are taken from US9249128B2 (priority 2010, dated 2016).

Like-named read-outs stand apart in the source and are kept apart here.

Usually IC50 stands for the midpoint of a concentration-inhibition curve.

Experiment [1] relates to MAGE levels in PC3 and DU145 cells. Kind of experiment: Lipid (MAGE) measurements in cancer cells. The following applies: 10 μM, 4 h in situ. Format: cell-based, human. The method, then:
(§1) Inhibitors were dissolved in DMSO and diluted into media or buffer prior to cell or proteome treatment, respectively. For in vitro treatment, final DMSO concentration was 4%. For in situ treatments of cells for ABPP, lipid measurements, migration, cell-survival, and invasion assays, 2×10^6 cells were seeded in 6 cm dishes (˜100% confluency) 24 h prior to inhibitor pre-treatment (in DMSO at 0.1% final concentration) in serum-free media (3 mL) for the designated time before harvesting cells for ABPP or lipid measurements or before the initiation of migration, cell-survival, and invasion assays.
Lipid measurements were performed in cancer cells as previously described (Chiang et al., 2006). Briefly, frozen cell pellets from cells harvested after 4 h serum starvation were extracted in 2:1:1 chloroform:methanol:Tris buffer pH 8.0 by dounce homogenization with 10 nmol of internal standard C12 MAGE. The organic layer was removed, dried under N2, and resuspended in 120 μL of chloroform, and 30 μL was injected into an Agilent 1100-MSD LC-MS. MAGE levels were quantified by measuring the area under the peak and were normalized to the C12 MAGE internal standard.

The test system of experiment [2] is PC3 and DU145 cells. Kind of experiment: Invasion assay (Matrigel chambers). Type of experiment: cell-based, human. The following applies: 10 μM, 4 h in situ. As to the method: as §1
(§2) Cell migration, cell survival, and invasion studies were performed as previously described (Nomura et al., 2010). Briefly, migration assays were performed in Transwell chambers (Corning) with 8 μm pore-sized membranes coated with 10 μg/mL collagen at 37° C. for LNCaP (24 h), PC3 (4 h) and DU145 cells (24 h), respectively. Cell survival assays were performed using the Cell Proliferation Reagent WST-1 (Roche) Invasion assays were conducted using the BD Matrigel Invasion Chambers per the manufacturer's protocol. Inhibitors were preincubated for the stated duration before seeding cells into migration, cell-survival, or invasion chambers. Prior to seeding the cells in these chambers, cells were serum-starved for 4 h. Inhibitors were also present during the migration, cell-survival, and invasion assays.

The subject of experiment [3] is PC3 and DU145 cells. Kind of experiment: Serum-free cell survival assay (WST-1). The following applies: 10 μM, 4 h in situ. Type of experiment: cell-based, human. The method, then: as §1, §2
For orientation: Formazan colour is commonly taken as a measure of viable cells.

The next experiment addresses T1, KIAA1363 (Mus musculus, UniProt Q8BLF1).
T1 construct: ABPP analysis of KIAA1363 activity in mouse brain membrane proteome; from tissue; host or cells: mouse brain (membrane fraction)
T1 sequence (Q8BLF1 1-408): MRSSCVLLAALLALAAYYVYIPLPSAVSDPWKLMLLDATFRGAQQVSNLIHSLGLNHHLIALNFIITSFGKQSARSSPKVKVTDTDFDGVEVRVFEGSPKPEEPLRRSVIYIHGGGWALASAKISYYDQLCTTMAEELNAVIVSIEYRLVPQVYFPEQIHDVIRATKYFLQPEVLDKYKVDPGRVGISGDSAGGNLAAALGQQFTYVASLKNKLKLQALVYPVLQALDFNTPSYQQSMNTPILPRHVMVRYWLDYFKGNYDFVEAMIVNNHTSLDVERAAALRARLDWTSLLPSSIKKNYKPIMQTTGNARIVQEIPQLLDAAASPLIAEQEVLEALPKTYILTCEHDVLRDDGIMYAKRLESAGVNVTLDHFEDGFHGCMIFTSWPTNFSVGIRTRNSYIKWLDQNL
Kind of experiment: Gel-based competitive ABPP of KIAA1363 in mouse brain membrane proteome (FP-rhodamine). Type of experiment: biochemical. The method, then:
In various embodiments, the invention provides a method of inhibiting a serine hydrolase, comprising contacting the hydrolase with a compound of formula (I), e.g., a compound selected from set of compounds shown in Table 1, below. […] IC50 values were derived from ABPP analysis of KIAA1363 activity in mouse brain membrane proteome and are averages of three replicates. Inhibitors were added to the proteome for 30 min before addition of FP-rhodamine (1 μM, 30 min).
Tissues were Dounce-homogenized in PBS, pH 7.4, followed by a low-speed spin (1,400 g, 5 min) to remove debris. The supernatant was then subjected to centrifugation (100,000×g, 45 min) to provide the cytosolic fraction in the supernatant and the unsoluble fraction as a pellet. The pellet was washed and resuspended in PBS buffer by sonication. Total protein concentration in each fraction was determined using a protein assay kit (Bio-Rad). Samples were stored at −80° C. until use.
For ABPP experiments, cell lysate and tissue proteomes were treated with 1 μM FP-rhodamine for 30 min at room temperature (50 μL total reaction volume) as described previously (Nomura et al., 2010). Reactions were quenched with one volume of standard 4×SDS/PAGE loading buffer (reducing), separated by SDS/PAGE (10% acrylamide), and visualized in-gel with a Hitachi FMBio IIe flatbed fluorescence scanner (MiraiBio). Inhibitors were preincubated prior (30 min or 4 h at 37° C. in vitro or in situ, respectively) to the addition of FP-rhodamine.

The target of the next experiment is T2, AChE (Mus musculus, UniProt P21836).
T2 construct: 20 μg of cell lysate or mouse brain membrane proteome; from tissue; host or cells: mouse brain (membrane proteome)
T2 sequence (P21836 32-614): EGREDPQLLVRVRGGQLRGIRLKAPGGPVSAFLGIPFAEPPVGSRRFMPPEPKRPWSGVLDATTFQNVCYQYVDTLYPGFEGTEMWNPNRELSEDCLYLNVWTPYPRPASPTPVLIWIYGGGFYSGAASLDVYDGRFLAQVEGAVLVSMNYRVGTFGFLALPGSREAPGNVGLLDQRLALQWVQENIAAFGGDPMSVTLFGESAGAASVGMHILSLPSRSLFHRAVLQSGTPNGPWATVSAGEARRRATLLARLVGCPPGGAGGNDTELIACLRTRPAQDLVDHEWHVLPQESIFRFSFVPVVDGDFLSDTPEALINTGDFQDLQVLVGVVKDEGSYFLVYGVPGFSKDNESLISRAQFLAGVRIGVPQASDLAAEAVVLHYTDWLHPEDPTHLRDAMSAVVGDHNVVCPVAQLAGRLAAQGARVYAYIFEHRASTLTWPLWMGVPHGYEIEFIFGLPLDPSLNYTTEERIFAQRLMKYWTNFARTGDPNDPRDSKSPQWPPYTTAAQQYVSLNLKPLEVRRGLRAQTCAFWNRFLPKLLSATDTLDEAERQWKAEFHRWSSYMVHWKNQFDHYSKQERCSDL
Put plainly: AChE activity assay with acetylthiocholine in mouse brain proteome. Type of experiment: biochemical. The following applies: acetylthiocholine hydrolysis in mouse brain membrane proteome. As to the method:
AChE activity was measured using a method similar to that described previously (Ellman et al., 1961). Briefly, 50 μL of 10 mM acetylthiocholine was added to 200 μL of PBS containing 2 mM DTNB and 20 μg of cell lysate or mouse brain membrane proteome. Absorbance was measured at 412 nm over 5 min, and the rate of product accumulation was calculated from the slope of the absorbance over time. For assays involving preincubation with inhibitors, the reactions were prepared without acetylthiocholine and JW480 was incubated at the indicated concentration for 30 min at 37° C. Acetylthiocholine was then added and the assay was carried out exactly as described above.

The mark [4] stands for this setting: mouse brain membrane proteome, inhibitor 30 min before FP-rhodamine (1 μM, 30 min), averages of three replicates, read-out: IC50 (KIAA1363).
Where [5] appears, read: screened against KIAA1363, Table 1, read-out: IC50 values of less than 1 micromolar.

With `CCCCOC[C@H]1CCCC[C@H]1COCCNC(=O)Oc1ccccc1F` [AS115, reference compound], the MAGE levels entry in experiment [1] is “lower MAGE levels”. In the experiment on PC3 and DU145 cells [2], the “PC3 and DU145 invasion” value was “impair”. Moreover, in the experiment with PC3 and DU145 cells [3], the “PC3 and DU145 serum-free cell survival” value is recorded as “impair”.

In the case of `CC(C)c1ccccc1OC(=O)NCCc1ccc(F)cc1` [JW464, 2-isopropylphenyl 4-fluorophenethylcarbamate], the IC50 is 11.3 nM at KIAA1363 (setting [4]) and around 10 nM at KIAA1363 (screened against KIAA1363, Table 1, read-out: IC50 values of around 10 nanomolar (most potent)). At AChE, the “Cross-reactivity with AChE” value was “cross-reactivity”.

As to `Cc1ccc2ccccc2c1OC(=O)NCc1ccc(Cl)cc1` [JW395, 2-methylnaphthalen-1-yl 4-chlorobenzylcarbamate], the IC50 at KIAA1363 (setting [4]) was above 50000 nM.

Take `CCOc1ccccc1OC(=O)NCCc1ccc2ccccc2c1`: the IC50 on KIAA1363 (setting [4]) was 890 nM; on KIAA1363 (setting [5]), below 1000 nM.

`CCOc1ccccc1OC(=O)NCc1ccc(OC)cc1` [JW388, 2-ethoxyphenyl 4-methoxybenzylcarbamate]: at KIAA1363 (setting [4]), the IC50 worked out at 1610 nM.

On to `Cc1ccc2ccccc2c1OC(=O)NCCC(c1ccccc1)c1ccccc1` [JW438, 2-methylnaphthalen-1-yl (3,3-diphenylpropyl)carbamate], for which the IC50 on KIAA1363 (setting [4]) was above 50000 nM.

Take `O=C(NCCc1ccc(Br)cc1)Oc1ccc(-n2cccc2)cc1` [JW412, 4-(1H-pyrrol-1-yl)phenyl 4-bromophenethylcarbamate]: at KIAA1363 (setting [4]), the IC50 is 1660 nM.

As for `O=C(NCc1ccc(OC(F)(F)F)cc1)Oc1ccc(-n2cccc2)cc1` [JW389, 4-(1H-pyrrol-1-yl)phenyl 4-(trifluoromethoxy)benzylcarbamate], the IC50 on KIAA1363 (setting [4]) was 263 nM; on KIAA1363 (setting [5]), below 1000 nM.

For the molecule `O=C(NCCc1ccc(F)cc1)Oc1ccc(-n2cccc2)cc1` [JW382, 4-(1H-pyrrol-1-yl)phenyl 4-fluorophenethylcarbamate], the IC50 at KIAA1363 (setting [4]) is 1200 nM.

For the molecule `O=C(NCCc1cccs1)Oc1ccc(-n2cccc2)cc1` [JW413, 4-(1H-pyrrol-1-yl)phenyl (2-(thiophen-2-yl)ethyl)carbamate], the half-inhibitory concentration (IC50) at KIAA1363 (setting [4]) is 618 nM; on KIAA1363 (setting [5]), below 1000 nM.

Take `CCOc1ccccc1OC(=O)NCCCc1ccccc1`: the 50% inhibitory concentration (IC50) at KIAA1363 (setting [4]) worked out at 1790 nM.

For the molecule `O=C(NCc1ccc(C(F)(F)F)cc1)Oc1ccc(-n2cccc2)cc1` [JW383, 4-(1H-pyrrol-1-yl)phenyl 4-(trifluoromethyl)benzylcarbamate], the IC50 was 997 nM at KIAA1363 (setting [4]) and below 1000 nM on KIAA1363 (setting [5]).

For `O=C(NCCCc1ccccc1)Oc1ccc(-n2cccc2)cc1` [JW393, 4-(1H-pyrrol-1-yl)phenyl (3-phenylpropyl)carbamate], the IC50 at KIAA1363 (setting [4]) is above 50000 nM.

`CCOc1ccccc1OC(=O)NCCN1CCOCC1` [JW429, 2-ethoxyphenyl (2-morpholinoethyl)carbamate] displayed an IC50 at KIAA1363 above 50000 nM.

With `Cc1ccc2ccccc2c1OC(=O)NCc1ccc(-c2ccccc2)cc1`, the IC50 on KIAA1363 (setting [4]) is above 50000 nM.

Consider `COc1cccc(CCNC(=O)Oc2ccc(-n3cccc3)cc2)c1` [JW432, 4-(1H-pyrrol-1-yl)phenyl 3-methoxyphenethylcarbamate], for which, on KIAA1363 (setting [4]), the half-inhibitory concentration (IC50) is above 10000 nM.

As for `CCOc1ccccc1OC(=O)NCCc1cc2ccccc2[nH]1` [JW430, 2-ethoxyphenyl (2-(1H-indol-2-yl)ethyl)carbamate], the IC50 at KIAA1363 (setting [4]) is above 50000 nM.

As for `Cc1ccc2ccccc2c1OC(=O)NCCc1ccc(Cl)c(Cl)c1` [JW422, 2-methylnaphthalen-1-yl 3,4-dichlorophenethylcarbamate], the IC50 was 665 nM on KIAA1363 (setting [4]) and below 1000 nM at KIAA1363 (setting [5]).

On to `O=C(NCc1ccc(Cl)cc1)Oc1ccc(-n2cccc2)cc1` [JW392, 4-(1H-pyrrol-1-yl)phenyl 4-chlorobenzylcarbamate], for which the figures for the IC50 at KIAA1363 (setting [4]) and on KIAA1363 (setting [5]) were 385 nM and below 1000 nM, respectively.

On to `O=C(NCCc1cc2ccccc2[nH]1)Oc1ccc(-n2cccc2)cc1` [JW426, 4-(1H-pyrrol-1-yl)phenyl (2-(1H-indol-2-yl)ethyl)carbamate], for which the IC50 at KIAA1363 (setting [4]) was above 50000 nM.

As to `CC1(C)Cc2cccc(OC(=O)NCc3ccc(I)cc3)c2O1` [JW147, 2,2-dimethyl-2,3-dihydrobenzofuran-7-yl 4-iodobenzylcarbamate], the values for the IC50 on KIAA1363 (setting [4]) and on KIAA1363 (setting [5]) were 148 nM and below 1000 nM, respectively.

Turning to `Cc1ccc2ccccc2c1OC(=O)NCCc1ccc(Br)cc1` [JW415, 2-methylnaphthalen-1-yl 4-bromophenethylcarbamate], the IC50 on KIAA1363 (setting [4]) is 1080 nM.

`Cc1ccc2ccccc2c1OC(=O)NCCCc1ccccc1` [JW396, 2-methylnaphthalen-1-yl (3-phenylpropyl)carbamate]: the IC50 on KIAA1363 (setting [4]) is above 10000 nM.

With `Cc1ccc2ccccc2c1OC(=O)NCC(c1ccccc1)c1ccccc1` [JW439, 2-methylnaphthalen-1-yl (2,2-diphenylethyl)carbamate], the IC50 on KIAA1363 (setting [4]) was above 50000 nM.

Consider `CCOc1ccccc1OC(=O)NCCc1ccc(C(F)(F)F)cc1` [JW448, 2-ethoxyphenyl 4-(trifluoromethyl)phenethylcarbamate], for which the results for the IC50 on KIAA1363 (setting [4]) and on KIAA1363 (setting [5]) were 293 nM and below 1000 nM, respectively.
